The results in this text go back to patent US8637496B2, “Compounds having a monogalactosyldiacylglycerol synthase inhibitory activity as herbicide or algaecide, herbicide and algaecide compositions” (Commissariat a l'Energie Atomique, priority 2007, dated 2014).

The experiment has as its target T1, MGDG synthase in isolated spinach chloroplast envelope membranes (Spinacia oleracea, UniProt Q9SM44).
T1 construct: envelope membranes purified from the lysate by sucrose centrifugation gradient; from tissue; host or cells: envelope membranes of chloroplasts from spinach leaves
T1 sequence (Q9SM44 99-522): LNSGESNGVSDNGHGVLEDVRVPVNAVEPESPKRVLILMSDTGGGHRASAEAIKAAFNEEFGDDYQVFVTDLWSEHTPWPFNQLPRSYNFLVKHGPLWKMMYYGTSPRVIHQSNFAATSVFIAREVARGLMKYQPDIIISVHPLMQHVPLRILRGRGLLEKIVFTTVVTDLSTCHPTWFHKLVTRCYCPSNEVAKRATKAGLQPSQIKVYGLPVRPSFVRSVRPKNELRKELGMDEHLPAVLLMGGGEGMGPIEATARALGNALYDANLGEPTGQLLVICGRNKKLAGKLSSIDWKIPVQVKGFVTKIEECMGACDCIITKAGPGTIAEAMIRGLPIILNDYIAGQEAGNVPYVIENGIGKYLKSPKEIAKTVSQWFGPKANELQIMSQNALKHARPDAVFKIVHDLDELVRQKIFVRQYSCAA
Briefly: MGDG synthase activity in envelope membrane fractions isolated from spinach chloroplasts. In kind it is biochemical. The following applies: Table 1, obtained in the same manner as FIG. 4; read-out: Inhibitory effect on MGDG synthesis in isolated spinach chloroplast envelope membranes. The text has this:
All the operations have been carried out as described in the article by Maréchal, E. et al., J. Biol. Chem., 1995, 270, 5714-5722. Crude chloroplasts were obtained from 3-4 kg of spinach leaves and purified by isopycnic centrifugation using Percoll gradients. Purified intact chloroplasts have then been lysed in hypotonic medium and envelope membranes purified from the lysate by sucrose centrifugation gradient as described in the article by Douce, R. and Joyard, J., (1982) in Methods in Chloroplast Molecular Biology (Edelman, M., Hallick R and Chua N H eds), pp 239-256, Elsevier Science Publishers B.V. Amsterdam.
MGDG synthase activity was assayed as described in the article by Maréchal et al. (1995).

pIC50: −log10 of the molar value. Where a name gives a salt, the structure may show the parent alone.

Consider `O=C(OCCN(CCCc1ccccc1)Cc1ccccc1)N1CCC(n2c(=O)[nH]c3ccccc32)CC1` [Compound 46, 2-(benzyl(3-phenylpropyl)amino)ethyl 4-(2-oxo-2,3-dihydro-1H-benzo[d]imidazol-1-yl)piperidine-1-carboxylate hydrochloride], for which the pIC50 is 4.82.
Under `O=C(OCCN(Cc1ccccc1)Cc1cccc(OCc2ccccc2)c1)N1CCC(n2c(=O)[nH]c3ccccc32)CC1` [Compound 81, 2-(benzyl(3-(benzyloxy)benzyl)amino)ethyl 4-(2-oxo-2,3-dihydro-1H-benzo[d]imidazol-1-yl)piperidine-1-carboxylate] stands 5.10; under `C[C@@H](COC(=O)N1CCC(n2c(=O)[nH]c3ccccc32)CC1)N(Cc1ccccc1)Cc1ccco1` [Compound 79, (S)-2-(benzyl(furan-2-ylmethyl)amino)propyl 4-(2-oxo-2,3-dihydro-1H-benzo[d]imidazol-1-yl)piperidine-1-carboxylate], 4.60.
Under `COc1ccccc1CN(CCOC(=O)N1CCC(n2c(=O)[nH]c3ccccc32)CC1)Cc1ccccc1` [Compound 75, 2-(benzyl(2-methoxybenzyl)amino)ethyl 4-(2-oxo-2,3-dihydro-1H-benzo[d]imidazol-1-yl)piperidine-1-carboxylate] stands 5.00; under `C[C@@H](COC(=O)N1CCC(n2c(=O)n(C(=O)c3ccccc3)c3ccccc32)CC1)N(Cc1ccccc1)Cc1ccccc1` [Compound 21, (S)-2-(dibenzylamino)propyl 4-(1,2-dihydro-2-oxo-1-(benzoyl)benzo[d]imidazol-3-yl)piperidine-1-carboxylate], 4.30; under `COc1cccc(CN(CCCOC(=O)N2CCC(n3c(=O)[nH]c4ccccc43)CC2)Cc2ccccc2)c1` [Compound 68, 3-(benzyl(3-methoxybenzyl)amino)propyl 4-(2-oxo-2,3-dihydro-1H-benzo[d]imidazol-1-yl)piperidine-1-carboxylate hydrochloride], 4.10.
Then `CC(C)C[C@@H](COC(=O)N1CCC(n2c(=O)[nH]c3ccccc32)CC1)NCc1ccccc1` [Compound 87, (S)-2-(benzylamino)-4-methylpentyl 4-(2-oxo-2,3-dihydro-1H-benzo[d]imidazol-1-yl)piperidine-1-carboxylate], with 4.35; and `CCN(CCOC(=O)N1CCC(n2c(=O)[nH]c3ccccc32)CC1)c1ccccc1` [Compound 17, 2-(ethyl(phenyl)amino)ethyl 4-(2-oxo-2,3-dihydro-1H-benzo[d]imidazol-1-yl)piperidine-1-carboxylate], with 3.70; and `O=C(OCCN(Cc1ccccc1)Cc1ccncc1)N1CCC(n2c(=O)[nH]c3ccccc32)CC1` [Compound 44, 2-(benzyl(pyridin-4-ylmethyl)amino)ethyl 4-(2-oxo-2,3-dihydro-1H-benzo[d]imidazol-1-yl)piperidine-1-carboxylate], with 4.35.
For the compound `C[C@@H](CNC(=S)N1CCC(n2c(=O)[nH]c3ccccc32)CC1)N(Cc1ccccc1)Cc1ccccc1` [Compound 23, N—((S)-2-(dibenzylamino)propyl)-4-(1,2-dihydro-2-oxobenzo[d]imidazol-3-yl)piperidine-1-carbothioamide], the pIC50 is 4.30.
As to `C[C@@H](COC(=O)N1CCC(n2c(=O)[nH]c3ccccc32)CC1)N(Cc1ccccc1)Cc1cccc2ccccc12` [Compound 62, (S)-2-(benzyl(naphthalen-1-ylmethyl)amino)propyl 4-(2-oxo-2,3-dihydro-1H-benzo[d]imidazol-1-yl)piperidine-1-carboxylate hydrochloride], the pIC50 is 4.60.
Under `C[C@@H](COC(=O)N1CCC(n2cnc3ccccc32)CC1)N(Cc1ccccc1)Cc1ccccc1` [Compound 1, (S)-2-(dibenzylamino)propyl 4-(1H-benzo[d]imidazol-1-yl)piperidine-1-carboxylate] stands 3.30 to 4.00; under `CC(C)(C)C(COC(=O)N1CCC(n2c(=O)[nH]c3ccccc32)CC1)N(Cc1ccccc1)Cc1ccccc1` (stereo not drawn) [Compound 31, 2-(dibenzylamino)-3,3-dimethylbutyl 4-(1,2-dihydro-2-oxobenzo[d]imidazol-3-yl)piperidine-1-carboxylate], 4.30; under `C[C@@H](COC(=O)Nc1ccc(-n2c(=O)[nH]c3ccccc32)cc1)N(Cc1ccccc1)Cc1ccccc1` [Compound 27, 2-(dibenzylamino)propyl 4-(1,2-dihydro-2-oxobenzo[d]imidazol-3-yl)phenylcarbamate], 4.35.
Consider `O=C(CCCN(Cc1ccccc1)Cc1ccccc1)N1CCC(n2c(=O)[nH]c3ccccc32)CC1` [Compound 24, 1-[1-(4-Dibenzylamino-butyryl)-piperidin-4-yl]-1,3-dihydro-benzoimidazol-2-one], for which the pIC50 was 4.60.
Then `COc1cccc(CN(Cc2ccccc2)[C@@H](C)COC(=O)N2CCC(n3c(=O)[nH]c4ccccc43)CC2)c1` [Compound 54, (S)-2-(benzyl(3-methoxybenzyl)amino)propyl 4-(2-oxo-2,3-dihydro-1H-benzo[d]imidazol-1-yl)piperidine-1-carboxylate hydrochloride], with 4.60.
On to `C[C@@H](COC(=O)N1CCCC(n2c(=O)[nH]c3ccccc32)CC1)N(Cc1ccccc1)Cc1ccccc1` (stereo partly drawn) [Compound 4, (S)-2-(dibenzylamino)propyl 4-(1,2-dihydro-2-oxobenzo[d]imidazol-3-yl)azepane-1-carboxylate], for which the pIC50 was 3.70.
Then `CC(C)(COC(=O)N1CCC(n2c(=O)[nH]c3ccccc32)CC1)N(Cc1ccccc1)Cc1ccccc1` [Compound 33, 2-(dibenzylamino)-2-methylpropyl 4-(1,2-dihydro-2-oxobenzo[d]imidazol-3-yl)piperidine-1-carboxylate], with 4.30; and `O=C(OCCCN(Cc1ccccc1)Cc1cccc(OCc2ccccc2)c1)N1CCC(n2c(=O)[nH]c3ccccc32)CC1` [Compound 84, 3-(benzyl(3-(benzyloxy)benzyl)amino)propyl 4-(2-oxo-2,3-dihydro-1H-benzo[d]imidazol-1-yl)piperidine-1-carboxylate], with 4.35.
Under `O=C(OCCN(C/C=C/c1ccccc1)Cc1ccccc1)N1CCC(n2c(=O)[nH]c3ccccc32)CC1` [Compound 82, (E)-2-(benzyl(cinnamyl)amino)ethyl 4-(2-oxo-2,3-dihydro-1H-benzo[d]imidazol-1-yl)piperidine-1-carboxylate] stands 4.30; under `O=C(OCCCN(Cc1ccccc1)Cc1ccc([N+](=O)[O-])cc1)N1CCC(n2c(=O)[nH]c3ccccc32)CC1` [Compound 38, 3-(benzyl(4-nitrobenzyl)amino)propyl 4-(2-oxo-2,3-dihydro-1H-benzo[d]imidazol-1-yl)piperidine-1-carboxylate hydrochloride], 4.82.
Under `C[C@@H](COC(=O)N1CCC(n2c(=O)[nH]c3ccccc32)CC1)N(Cc1ccccc1)Cc1cccs1` [Compound 63, (S)-2-(benzyl(thiophen-2-ylmethyl)amino)propyl 4-(2-oxo-2,3-dihydro-1H-benzo[d]imidazol-1-yl)piperidine-1-carboxylate hydrochloride] stands 4.52.
In the case of `O=C(OCCCN(Cc1ccccc1)Cc1ccccn1)N1CCC(n2c(=O)[nH]c3ccccc32)CC1` [Compound 59, 3-(benzyl(pyridin-2-ylmethyl)amino)propyl 4-(2-oxo-2,3-dihydro-1H-benzo[d]imidazol-1-yl)piperidine-1-carboxylate hydrochloride], the pIC50 is 4.82.
Then `Cn1c(=O)n(C2CCN(C(=O)OC[C@H](Cc3ccccc3)N(Cc3ccccc3)Cc3ccccc3)CC2)c2ccccc21` [Compound 22, (S)-2-(dibenzylamino)-3-phenylpropyl 4-(1,2-dihydro-1-methyl-2-oxobenzo[d]imidazol-3-yl)piperidine-1-carboxylate], with 4.12; and `CC(C)C[C@@H](COC(=O)N1CCC(n2c(=O)[nH]c3ccccc32)CC1)N(Cc1ccccc1)Cc1ccccc1` [Compound 30, (S)-2-(dibenzylamino)-4-methylpentyl 4-(2-oxo-2,3-dihydro-1H-benzo[d]imidazol-1-yl)piperidine-1-carboxylate], with 4.92; and `O=C(OCCN1C(=O)c2ccccc2C1=O)N1CCC(n2c(=O)[nH]c3ccccc32)CC1` [Compound 15, 2-(1,3-dioxoisoindolin-2-yl)ethyl 4-(1,2-dihydro-2-oxobenzo[d]imidazol-3-yl)piperidine-1-carboxylate], with 4.35.
Under `O=C(OCCCN(Cc1ccccc1)Cc1cccc(Cl)c1)N1CCC(n2c(=O)[nH]c3ccccc32)CC1` [Compound 69, 3-(benzyl(3-chlorobenzyl)amino)propyl 4-(2-oxo-2,3-dihydro-1H-benzo[d]imidazol-1-yl)piperidine-1-carboxylate hydrochloride] stands 4.52.
